# Values joined by “and” are separate entries in the source; they are usually repeats but may differ in a detail not shown here. Equal values may be shown once.
# Assay: Biodistribution of representative compounds (Example 13), % ID/g in tissues of tumor-bearing mice
# Assay type: in vivo, mouse
# [1] = 30 min, 20 μCi per mouse (SA 6500 mCi/μmol)
# [2] = 60 min + Blocker cold FAPI-04 (10 nmole, 6500-fold)
# [3] = 60 min, 20 μCi per mouse (SA 6500 mCi/μmol)
structure (smiles),measurement,setting,value
N#C[C@@H]1CCCN1C(=O)CNC(=O)c1ccnc2ccc(OCCCNC(=O)[C@@H](CC(=O)O)NC(=O)[C@@H](CC(=O)O)NC(=O)c3ccc([18F])nc3)cc12 [[^18F]JHU1221785],% ID/g Bladder (individual mouse),[1],0.93 % ID/g and 4.69 % ID/g
same,% ID/g Blood (individual mouse),[1],5.98 % ID/g and 3.90 % ID/g
same,% ID/g Brain (individual mouse),[1],0.14 % ID/g and 0.15 % ID/g
same,% ID/g Fat (individual mouse),[1],0.21 % ID/g and 0.19 % ID/g
same,% ID/g Femur (individual mouse),[1],2.78 % ID/g and 2.44 % ID/g
same,% ID/g Heart (individual mouse),[1],2.51 % ID/g and 2.01 % ID/g
same,% ID/g Kidney (individual mouse),[1],1.60 % ID/g and 3.33 % ID/g
same,% ID/g Large intestine (individual mouse),[1],0.58 % ID/g and 0.86 % ID/g
same,% ID/g Liver (individual mouse),[1],6.56 % ID/g and 8.08 % ID/g
same,% ID/g Lung (individual mouse),[1],2.77 % ID/g and 2.53 % ID/g
same,% ID/g Mean Bladder,[1],2.81 % ID/g
same,% ID/g Mean Blood,[1],4.94 % ID/g
same,% ID/g Mean Brain,[1],0.14 % ID/g
same,% ID/g Mean Fat,[1],0.20 % ID/g
same,% ID/g Mean Femur,[1],2.61 % ID/g
same,% ID/g Mean Heart,[1],2.26 % ID/g
same,% ID/g Mean Kidney,[1],2.47 % ID/g
same,% ID/g Mean Large intestine,[1],0.72 % ID/g
same,% ID/g Mean Liver,[1],7.32 % ID/g
same,% ID/g Mean Lung,[1],2.65 % ID/g
same,% ID/g Mean Muscle,[1],0.96 % ID/g
same,% ID/g Mean Pancreas,[1],2.31 % ID/g
same,% ID/g Mean Salivary gland,[1],2.93 % ID/g
same,% ID/g Mean Small intestine,[1],2.49 % ID/g
same,% ID/g Mean Spleen,[1],1.00 % ID/g
same,% ID/g Mean Stomach,[1],0.82 % ID/g
same,% ID/g Mean Tumor,[1],1.24 % ID/g
same,% ID/g Muscle (individual mouse),[1],0.81 % ID/g and 1.12 % ID/g
same,% ID/g Pancreas (individual mouse),[1],1.92 % ID/g and 2.71 % ID/g
same,% ID/g Salivery gland (individual mouse),[1],2.81 % ID/g and 3.05 % ID/g
same,% ID/g Small intestine (individual mouse),[1],2.60 % ID/g and 2.38 % ID/g
same,% ID/g Spleen (individual mouse),[1],1.03 % ID/g and 0.97 % ID/g
same,% ID/g Stomach (individual mouse),[1],0.72 % ID/g and 0.92 % ID/g
same,% ID/g Tumor (individual mouse),[1],1.14 % ID/g
same,% ID/g Bladder (individual mouse),[2],0.23 % ID/g and 0.67 % ID/g
same,% ID/g Blood (individual mouse),[2],0.11 % ID/g and 9.26 % ID/g
same,% ID/g Brain (individual mouse),[2],0.02 % ID/g and 0.04 % ID/g
same,% ID/g Fat (individual mouse),[2],0.03 % ID/g and 0.21 % ID/g
same,% ID/g Femur (individual mouse),[2],1.52 % ID/g and 1.50 % ID/g
same,% ID/g Heart (individual mouse),[2],0.06 % ID/g and 0.07 % ID/g
same,% ID/g Kidney (individual mouse),[2],0.41 % ID/g and 0.51 % ID/g
same,% ID/g Large intestine (individual mouse),[2],0.08 % ID/g and 0.33 % ID/g
same,% ID/g Liver (individual mouse),[2],9.42 % ID/g and 10.36 % ID/g
same,% ID/g Lung (individual mouse),[2],0.13 % ID/g and 0.20 % ID/g
same,% ID/g Mean Bladder,[2],0.43 % ID/g
same,% ID/g Mean Blood,[2],4.68 % ID/g
same,% ID/g Mean Brain,[2],0.03 % ID/g
same,% ID/g Mean Fat,[2],0.12 % ID/g
same,% ID/g Mean Femur,[2],1.51 % ID/g
same,% ID/g Mean Heart,[2],0.07 % ID/g
same,% ID/g Mean Kidney,[2],0.46 % ID/g
same,% ID/g Mean Large intestine,[2],0.20 % ID/g
same,% ID/g Mean Liver,[2],9.69 % ID/g
same,% ID/g Mean Lung,[2],0.17 % ID/g
same,% ID/g Mean Muscle,[2],0.06 % ID/g
same,% ID/g Mean Pancreas,[2],0.13 % ID/g
same,% ID/g Mean Salivary gland,[2],0.05 % ID/g
same,% ID/g Mean Small intestine,[2],3.54 % ID/g
same,% ID/g Mean Spleen,[2],0.16 % ID/g
same,% ID/g Mean Stomach,[2],0.16 % ID/g
same,% ID/g Mean Tumor,[2],0.10 % ID/g
same,% ID/g Muscle (individual mouse),[2],0.04 % ID/g and 0.07 % ID/g
same,% ID/g Pancreas (individual mouse),[2],0.05 % ID/g and 0.22 % ID/g
same,% ID/g Salivery gland (individual mouse),[2],0.04 % ID/g and 0.06 % ID/g
same,% ID/g Small intestine (individual mouse),[2],0.88 % ID/g and 6.19 % ID/g
same,% ID/g Spleen (individual mouse),[2],0.08 % ID/g and 0.25 % ID/g
same,% ID/g Stomach (individual mouse),[2],0.09 % ID/g and 0.23 % ID/g
same,% ID/g Tumor (individual mouse),[2],0.08 % ID/g and 0.11 % ID/g
same,% ID/g Bladder (individual mouse),[3],0.76 % ID/g and 0.92 % ID/g
same,% ID/g Blood (individual mouse),[3],2.56 % ID/g and 4.57 % ID/g
same,% ID/g Brain (individual mouse),[3],0.09 % ID/g and 0.12 % ID/g
same,% ID/g Fat (individual mouse),[3],0.22 % ID/g and 0.12 % ID/g
same,% ID/g Femur (individual mouse),[3],2.06 % ID/g and 2.07 % ID/g
same,% ID/g Heart (individual mouse),[3],1.38 % ID/g and 1.73 % ID/g
same,% ID/g Kidney (individual mouse),[3],0.79 % ID/g and 1.04 % ID/g
same,% ID/g Large intestine (individual mouse),[3],0.61 % ID/g and 0.78 % ID/g
same,% ID/g Liver (individual mouse),[3],7.41 % ID/g and 8.27 % ID/g
same,% ID/g Lung (individual mouse),[3],1.70 % ID/g and 2.65 % ID/g
same,% ID/g Mean Bladder,[3],0.84 % ID/g
same,% ID/g Mean Blood,[3],3.57 % ID/g
same,% ID/g Mean Brain,[3],0.10 % ID/g
same,% ID/g Mean Fat,[3],0.22 % ID/g
same,% ID/g Mean Femur,[3],2.07 % ID/g
same,% ID/g Mean Heart,[3],1.56 % ID/g
same,% ID/g Mean Kidney,[3],0.91 % ID/g
same,% ID/g Mean Large intestine,[3],0.69 % ID/g
same,% ID/g Mean Liver,[3],7.84 % ID/g
same,% ID/g Mean Lung,[3],2.18 % ID/g
same,% ID/g Mean Muscle,[3],0.98 % ID/g
same,% ID/g Mean Pancreas,[3],2.07 % ID/g
same,% ID/g Mean Salivary gland,[3],3.45 % ID/g
same,% ID/g Mean Small intestine,[3],1.83 % ID/g
same,% ID/g Mean Spleen,[3],0.93 % ID/g
same,% ID/g Mean Stomach,[3],0.71 % ID/g
same,% ID/g Mean Tumor,[3],2.23 % ID/g
same,% ID/g Muscle (individual mouse),[3],1.03 % ID/g and 0.69 % ID/g
same,% ID/g Pancreas (individual mouse),[3],1.96 % ID/g and 2.17 % ID/g
same,% ID/g Salivery gland (individual mouse),[3],2.17 % ID/g and 4.73 % ID/g
same,% ID/g Small intestine (individual mouse),[3],1.65 % ID/g and 2.01 % ID/g
same,% ID/g Spleen (individual mouse),[3],0.78 % ID/g and 1.09 % ID/g
same,% ID/g Stomach (individual mouse),[3],0.60 % ID/g and 0.81 % ID/g
same,% ID/g Tumor (individual mouse),[3],2.99 % ID/g and 1.47 % ID/g

# Reference: patent US20240382629A1, “HETEROBIVALENT AND HOMOBIVALENT AGENTS TARGETING FIBROBLAST ACTIVATION PROTEIN ALPHA AND/OR PROSTATE-SPECIFIC MEMBRANE ANTIGEN” (The Johns Hopkins University, priority 2021, published 2024)
